In patent US20080206219A1, “Novel Indications for Transforming Growth Factor-Beta Regulators” (THE REGENCTS OF THE UNIVERSITY OF CALIFORNIA, priority 2003, published 2008):
Entries after “also recorded” stand apart in the source; their conditions may differ.

Experiments:
[1] = system: gelatinolytic activity in Collα1(I)r/r skin; assay: Substrate conversion assay (DQ-gelatin) on skin lysates; assay type: biochemical, mice; settings: inhibitor at 4 mM
Experimental: Shaved back skin pieces from 5-8 week old mice were pulverized in liquid N2 and solubilized in 500 μl buffer (0.25 M sucrose, 5 mM Tris, pH 7.5, protease Inhibitor cocktail mix without EDTA (Roche), 0.25 mg/ml Pefablock (Roche), 0.01 mg/ml Aprotinin (Sigma-Aldrich) using a 2 ml tissue grinder (Fisher) and centrifuged at 4° C. 800×g for 15-min. Supernatants were centrifuged for 1-hr at 100,000×g at 4° C. Supernatants were stored at −80° C., pellets were resuspended in 100 μl solubilization buffer, homogenized by sonication at 4° C., and stored at −80° C. Protein concentration was determined with the BioRad DC Protein assay reagent according to manufacturers instructions (BioRad). Prior to assay, lysate buffers were exchanged using Micro Bio-spin chromatography columns (Bio-gelP-6; BioRad) to 10 mM Tris pH 7.5 according to the manufacturers specifications. […] Reactions were incubated up to 5-hr at 37° C. and fluorescence measured (excitation 485 nm, emission 530 nm) every 3-min on a Microplate Spectrofluorometer (SpectraMax Gemini EM, Molecular Devices) and quantified using SoftMax Pro 4.1 software. […]

[2] = system: Collα1(I)+/+ and Collα1(I)r/r mice; assay: Miles assay: Evans blue leakage in ears after mustard oil challenge; assay type: in vivo; settings: for Evans blue dye leakage into vascular stroma after MO, GM6001-treated versus vehicle-treated mice: GM6001 i.p. 100 mg/kg daily for 3-days before MO challenge
Experimental: Evans blue (EB) dye (30 mg/kg in 100 μl PBS; Sigma-Aldrich) was injected into the tail vein of 7- to 8-week-old mice. In some experiments, after 1-min, 30 μl of 5% mustard oil (Phenyl Isothiocyanate, 98%, Sigma-Aldrich) diluted in mineral oil (Sigma-Aldrich) was applied to the dorsal and ventral surfaces of the ear; the application process was repeated 15 minutes later. Isoflurane anesthesized mice were photographed 30 minutes after injection of EB dye. Anesthesized mice were then cardiac perfused, ears removed, blotted dry and weighed. EB dye was extracted from ears in 1 ml of formamide overnight to 48-hrs at 60° C. and measured spectrophotometrically at 610 nm in a SpectraMax 340™ (Molecular Devices). Data are expressed as mean±SEM. Comparisons of the amounts of dye extravasation were evaluated by Mann-Whitney statistical test with p values less than 0.05 considered significant. In some experiments, 5-min prior to the infusion of EB dye, shaved 5-to 7-week old mice were injected (10 μl) intradermally with one of the following agents at the concentrations shown (VEGF120, R&D Systems; VEGF164, Chemicon; histamine, Calbiochem; serotonin, Sigma-Aldrich) and the appearance of a blue spot monitored for 30 minutes at which time mice were euthanized, cardiac perfused, photographed and the area of skin surrounding the site of injection excised (˜5 mm^2), photographed and EB dye extracted as above. […]
The vascular physiology in a mouse model of human Sc, e.g., Collα1(I)^r/r mice, was studied to determine whether an altered balance between collagen synthesis, accumulation and/or degradation was a rate-limiting factor for efficient vascular physiology prior to histopathologic appearance of Sc disease. The ears of Collα1(I)^r/r versus littermate control (Collα1(I)^+/+) mice were treated with vehicle alone (mineral oil; FIG. 1A) or mustard oil (MO; 5% in mineral oil: right ear), an inflammatory agent that induces plasma leakage, vasodilation of capillaries and inflammation in the skin (FIG. 1A). Evans blue dye (30 mg/kg in 100 μl PBS; Sigma Chemical Co., St. Louis, Mo., USA) was injected into the tail vein of the mice. After 1 minute, 5% mustard oil (Phenyl Isothiocyanate, 98%, Sigma) diluted in mineral oil (Sigma) was applied to the dorsal and ventral surfaces of the ear with a cotton swab; the application process was repeated 15 minutes later. […] Isoflurane anesthesized mice were photographed 30 minutes after injection of Evans blue dye. Anesthesized mice were then cardiac perfused, ears removed, blotted dry, and weighed. The Evans blue dye was extracted from the ears with 1 ml of formamide overnight at 60° C. and measured spectrophotometrically at 610 nm in a SpectraMax 340™ (Molecular Devices). Data are expressed as mean±SEM. Comparisons of the amounts of dye extravasation were evaluated by the Fisher's t test with p values less than 0.05 considered significant.
Vascular permeability (VP) responses in control and Collα1(I)^r/r mice treated with a broad spectrum synthetic metalloproteinase inhibitor (MPI), e.g., GM6001 were examined. GM6001 (N-[(2R)-2(hydroxyamidocarbonylmethyl)-4-methylpantanoyl]-L-tryptophan ethylamide), a broad, class-specific metalloproteinase inhibitor (Chemicon, Temecula Calif.), was administered daily i.p. at 100 mg/kg body weight as a 20 mg/ml slurry in 4% carboxymethylcellulose in 0.9% PBS daily for 3-days. Controls were treated with a daily injection of 4% carboxymethylcellulose in PBS. The animals were then subject to cutaneous challenge with MO and qualitative and quantitative assessment of Evans blue dye leakage into vascular stroma (FIG. 5A).

[3] = system: TGFβ1; assay: IP-Western of mature dimeric TGFβ1 in tissue lysates of treated mice; assay type: in vivo; settings: lysates from Collα1(I)+/+ and Collα1(I)r/r mice treated with GM6001
Experimental: After incubation with protein agarose G or A beads (Roche) beads for an additional hour at 4° C., lysates bound to agarose beads were washed three times with HNTG buffer and bound proteins were eluted by boiling in 1× reduced SDS_PAGE sample buffer for 5-min and centrifuged at 13,000 rpm for 10-min. Tissue lysates (20 μg for LAP) or eluted immunoprecipitated complexes were separated by electrophoresis on 10% SDS-polyacrylamine gels, and transferred to nitrocellulous membranes overnight at 4° C. […] Membranes were then washed and developed by using an enhanced chemiluminescence kit (ECL, Amersham Biosciences). Biotinylated-LAP antibodies (R&D System BAF246, 1:1000), biotinylated anti-TGF-β 1 antibodies (R&D System BAF240, 1:1000) and antibodies to MMP14 (Oncogene Sciences 1M397, 1:1,000; Chemicon AB8104, 1:1000 were used for detection on membranes. For loading control in LAP western analysis, rat monoclonal antibody (AbCam YL1/2, 1:5,000) against o-tubulin and goat anti-rat-HRP (Pierce, 1:2000) antibodies were used.

[4] = system: MP activity; settings: GM6001 i.p. 100 mg/kg, 20 mg/ml slurry in 4% CMC; cited from earlier work
[5] = control versus Colα1(I)r/r mice +/- mustard oil, p<0.03

Compound | gelatinolytic activity in skin lysate [1] | Evans blue dye leakage into vascular stroma after MO, GM6001-treated versus vehicle-treated mice ([2]; Collα1(I)r/r mice) | Evans blue dye leakage into vascular stroma after MO, GM6001-treated versus vehicle-treated mice ([2]; control Collα1(I)+/+ mice) | effect of GM6001, fold increase (FIG. 5) [2, 5] [fold] | effect of GM6001, increase in % (FIG. 5) [2, 5] [%] | level of ~25 kDa dimeric mature form of TGFβ1 in tissue lysates [3] | in vivo MP activity [4]
c1cnc2c(c1)ccc1cccnc12 [1,10 phenanthroline] | completely inhibited | – | – | – | – | – | –
CNC(=O)[C@H](Cc1c[nH]c2ccccc12)NC(=O)[C@@H](CC(=O)NO)CC(C)C [GM6001] | – | significantly above vehicle-treated; also recorded: restored the appropriate acute vascular responses; also recorded: restores acute vascular responses | higher than that observed in MO-treated control mice receiving vehicle alone; also recorded: even more susceptible to MO-induced EB leakage; also recorded: hyper-sensitive to vascular leakage | 1.8 | 54 | markedly decreased; also recorded: reduced | inhibit in vivo MP activity
